In patent publication US9416162B2, “Peptides having reduced toxicity that stimulate cholesterol efflux” (The Regents of the University of California, priority 2013, dated 2016):
Non-standard residues stand in square brackets, D forms with d. Residues, ends and D or L forms follow the SMILES beside them. No end group written: not given here. Cit = NC(=O)NCCC[C@H](N)C(=O)O

Experiments:
C57Bl/6 mice = test: Safety and TG elevating effects after IP injection in C57Bl/6 mice (plasma CPK, ALT, AST, lipids); type: in vivo; conditions: for cytotoxic/toxic response (plasma CPK, ALT, AST) / muscle toxicity (plasma CPK activity): plasma 4 h after injection
Method: The high-dose cytotoxic response of ATI-5261 observed in rat, rabbit and cynomolgus monkey is additionally recapitulated in mice (FIG. 4). Male chow-fed C57bl/6 mice were injected intraperitonelly (IP) with 30 or 300 mg/kg of lipid-fee ATI-5261. Blood was collected via the retro-orbital plexus 4 h after peptide injection and plasma subsequently obtained for measurement of CPK (Panel A) and ALT and AST activities (Panel B, ALT left bars; AST, right bars). Values are means±SD, n=4 mice per group.
This example illustrates that aromatic phenylalanine residues associated with the non-polar surface of ATI-5261 contributed to the majority of the peptide toxicity (FIG. 5). […] Blood was collected via retro-orbital plexus 4 h after injection for isolation of plasma. Levels of plasma CPK (Panel A), ALT (panel B) and AST (Panel C) were determined as described in FIG. 1. Values are means±SD, n=4 mice per group.
All values (mg/dl) are means±SD, n=4, determined at 4 and 6 h post treatment with peptide.

[1] = Scaled Parameters = (Raw Parameters + 2.061)/4.484; cited from earlier work
ABCA1 [2] = molecular target: T1, ABCA1 (Mus musculus, UniProt P41233); test: ABCA1-dependent [3H]cholesterol efflux from J774 macrophages with and without cAMP; type: cell-based; parameters: ABCA1-dependent cholesterol efflux: dose or concentration left out as unconfirmed; conditions: for ABCA1-dependent cholesterol efflux: J774 with/without cAMP, acceptors lipid-free, 4 h
T1 construct: treated (18 h) with a cAMP analog to induce ABCA1 protein expression; endogenous in cells; host or cells: J774 macrophages
T1 sequence (P41233 whole entry): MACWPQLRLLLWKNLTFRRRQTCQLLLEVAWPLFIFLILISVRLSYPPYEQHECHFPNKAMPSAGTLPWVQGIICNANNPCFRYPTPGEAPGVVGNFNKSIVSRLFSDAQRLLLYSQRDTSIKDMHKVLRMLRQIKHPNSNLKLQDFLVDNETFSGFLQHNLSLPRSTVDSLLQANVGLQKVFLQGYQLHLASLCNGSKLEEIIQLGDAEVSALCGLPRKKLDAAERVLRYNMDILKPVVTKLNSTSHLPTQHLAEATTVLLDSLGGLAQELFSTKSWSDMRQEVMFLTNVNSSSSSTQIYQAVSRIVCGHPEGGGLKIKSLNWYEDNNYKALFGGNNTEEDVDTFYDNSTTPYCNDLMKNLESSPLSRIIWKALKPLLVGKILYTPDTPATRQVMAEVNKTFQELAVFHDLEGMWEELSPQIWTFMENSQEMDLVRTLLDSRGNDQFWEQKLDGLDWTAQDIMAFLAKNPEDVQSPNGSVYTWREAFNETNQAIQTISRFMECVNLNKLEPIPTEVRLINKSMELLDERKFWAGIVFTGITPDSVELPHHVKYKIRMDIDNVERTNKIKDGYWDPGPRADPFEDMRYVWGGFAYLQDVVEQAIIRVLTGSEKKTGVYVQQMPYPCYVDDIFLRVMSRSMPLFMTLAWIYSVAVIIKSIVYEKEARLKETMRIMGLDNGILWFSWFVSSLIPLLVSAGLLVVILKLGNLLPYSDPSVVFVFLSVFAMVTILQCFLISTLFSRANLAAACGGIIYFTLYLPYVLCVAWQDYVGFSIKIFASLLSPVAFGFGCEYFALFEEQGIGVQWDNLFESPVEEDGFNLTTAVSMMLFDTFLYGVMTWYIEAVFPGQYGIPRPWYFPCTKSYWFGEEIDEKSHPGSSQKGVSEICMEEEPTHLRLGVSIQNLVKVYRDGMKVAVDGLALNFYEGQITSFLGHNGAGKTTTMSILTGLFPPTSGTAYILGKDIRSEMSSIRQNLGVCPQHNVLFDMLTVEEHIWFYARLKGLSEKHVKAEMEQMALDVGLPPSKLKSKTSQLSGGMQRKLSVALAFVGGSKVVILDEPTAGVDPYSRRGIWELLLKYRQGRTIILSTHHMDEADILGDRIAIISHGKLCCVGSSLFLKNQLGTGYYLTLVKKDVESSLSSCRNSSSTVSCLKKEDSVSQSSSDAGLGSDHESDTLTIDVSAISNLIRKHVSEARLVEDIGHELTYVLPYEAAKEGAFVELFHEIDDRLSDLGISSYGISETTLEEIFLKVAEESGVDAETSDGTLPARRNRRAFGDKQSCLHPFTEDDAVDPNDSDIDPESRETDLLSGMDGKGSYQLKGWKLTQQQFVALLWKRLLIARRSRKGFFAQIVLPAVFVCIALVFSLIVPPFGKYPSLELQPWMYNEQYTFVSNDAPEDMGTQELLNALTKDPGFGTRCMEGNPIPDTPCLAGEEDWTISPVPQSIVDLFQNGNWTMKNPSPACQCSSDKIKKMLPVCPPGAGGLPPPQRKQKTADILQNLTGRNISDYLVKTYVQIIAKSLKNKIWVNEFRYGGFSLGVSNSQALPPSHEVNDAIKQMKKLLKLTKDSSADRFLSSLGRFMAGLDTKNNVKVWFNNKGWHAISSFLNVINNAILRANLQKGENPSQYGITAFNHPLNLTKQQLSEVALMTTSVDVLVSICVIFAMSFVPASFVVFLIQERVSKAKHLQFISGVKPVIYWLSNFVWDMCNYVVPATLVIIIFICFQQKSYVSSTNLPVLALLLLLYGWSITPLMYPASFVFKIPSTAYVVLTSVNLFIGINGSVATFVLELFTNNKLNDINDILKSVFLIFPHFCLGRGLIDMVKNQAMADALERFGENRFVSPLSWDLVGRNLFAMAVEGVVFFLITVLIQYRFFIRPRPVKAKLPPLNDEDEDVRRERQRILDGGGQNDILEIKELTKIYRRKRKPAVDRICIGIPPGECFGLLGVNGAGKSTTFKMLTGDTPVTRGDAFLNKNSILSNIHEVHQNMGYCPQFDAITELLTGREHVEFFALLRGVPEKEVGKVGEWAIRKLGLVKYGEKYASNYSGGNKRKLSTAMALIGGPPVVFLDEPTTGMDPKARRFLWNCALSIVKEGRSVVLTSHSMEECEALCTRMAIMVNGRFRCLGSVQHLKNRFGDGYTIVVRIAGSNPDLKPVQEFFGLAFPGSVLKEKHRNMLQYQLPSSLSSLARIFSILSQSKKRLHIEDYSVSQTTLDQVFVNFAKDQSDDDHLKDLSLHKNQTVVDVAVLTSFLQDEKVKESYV

ABCA1 [3] = molecular target: T1, ABCA1; test: as above; type: cell-based; conditions: cAMP treated J774 cells; for efficiency of stimulating cholesterol efflux (concentration dependence): dose response; for Km for cholesterol efflux / peptide concentration at saturation in cholesterol efflux: increasing concentration of peptides, 4 h
From the text: Suitable cholesterol efflux assays are described in, e.g., Bielicki, J. K and Oda, M. N., Biochemistry, 41:2089-2096 (2002); Jia et al., Biochem. Biophys. Res. Common., 297:206-213 (2002). In some embodiments, a polypeptide known to mediate cholesterol efflux (e.g., helix 9/10 of Apo A-I) is used to screen for additional mediators of cholesterol efflux in a cell based assay. For example, cell lines in which cholesterol efflux can be enhanced using a cAMP analog that up-regulates ABCA1 protein expression (e.g., J774 macrophages) can conveniently be used to assess the ability of a polypeptide of the present invention to mediate cholesterol efflux. The cells are incubated with labeled cholesterol (e.g., [^3H]cholesterol) under conditions appropriate for cholesterol uptake by the cells. Thus, cAMP or cAMP analogs (e.g., CPT-cAMP) are incubated with the cells for a suitable time before the initiation of cellular cholesterol efflux, i.e., prior to contacting the cells with a test polypeptide. Measurement of labeled cholesterol appearing in the medium is used to determine the cholesterol efflux mediating activity of the test polypeptide.
Aliphatic analogs of ATI-5261 lacking phenylalanine residues retained potent ABCA1 selective cholesterol efflux activity (FIG. 7). J774 macrophages were labeled (48 h) with [^3H]cholesterol and treated (18 h) with a cAMP analog to induce ABCA1 protein expression; cells incubated in the absence of cAMP (left bars) served as controls. […] Peptides were used at a concentration of 30 μg/ml, which was maximal for promoting cholesterol efflux activity. Panel B—Dependence of cholesterol efflux on the concentration of peptides. […] Results are expressed as the difference in cholesterol efflux (%/4 h) observed using cAMP treated vs. non-treated J774 cells. Values are means±SD, n=3.

[4] = male chow-fed C57Bl/6 mice, IP 300 mg/kg

## T5554-4: E→Q analog carrying the favorable citrulline substitutions (EV[Cit]SKLQEWFAAFREFAEEFLARLKS)
C57Bl/6 mice; [4]
  cytotoxic/toxic response (plasma CPK, ALT, AST): retained strong toxic (CPK, ALT, and AST) and TG elevating responses

## T5554-5: E→Q analog carrying the favorable citrulline substitutions, net-charge −1 (EV[Cit]SKLQEWFAAF[Cit]EFAQEFLARLKS)
C57Bl/6 mice; [4]
  cytotoxic/toxic response (plasma CPK, ALT, AST): retained strong toxic (CPK, ALT, and AST) and TG elevating responses

## CC[C@H](C)[C@H](NC(=O)[C@H](C)NC(=O)[C@H](C)NC(=O)[C@@H](NC(=O)[C@H](Cc1c[nH]c2ccccc12)NC(=O)[C@H](CCC(=O)O)NC(=O)[C@H](CCC(=O)O)NC(=O)[C@H](CC(C)C)NC(=O)[C@H](CCCCN)NC(=O)[C@H](CO)NC(=O)[C@H](CCCNC(N)=O)NC(=O)[C@@H](NC(=O)[C@@H](N)CCC(=O)O)C(C)C)[C@@H](C)CC)C(=O)N[C@@H](CCCNC(N)=O)C(=O)N[C@@H](CCC(=O)O)C(=O)N[C@H](C(=O)N[C@@H](C)C(=O)N[C@@H](CCC(=O)O)C(=O)N[C@@H](CCC(=O)O)C(=O)N[C@H](C(=O)N[C@@H](CC(C)C)C(=O)N[C@@H](C)C(=O)N[C@@H](CCCNC(=N)N)C(=O)N[C@@H](CC(C)C)C(=O)N[C@@H](CCCCN)C(=O)N[C@@H](CO)C(=O)O)[C@@H](C)CC)[C@@H](C)CC [T6991-2, EVC*SKLEEWIAAIC*EIAEEILARLKS (SEQ ID NO:3)] (H-EV[Cit]SKLEEWIAAI[Cit]EIAEEILARLKS-OH)
C57Bl/6 mice; [4]
  muscle toxicity (plasma CPK activity): little or no cytotoxic properties

## N[C@@H](Cc1ccccc1)C(=O)O [Phenylalanine]
[1]
  Hydrophobicity (scaled computational log(P)): 1.00

## EVRSKLQEWFAAFREFAQEFLARLKS [T5554-1]
C57Bl/6 mice; [4]
  cytotoxic/toxic response (plasma CPK, ALT, AST): large increase in the toxic response

## C[C@H](N)C(=O)O [Alanine]
[1]
  Hydrophobicity (scaled computational log(P)): 0.616

## Y26 form of CS6253: CS6253 with a S26→Y substitution to facilitate labeling with 125I (SEQ ID NO:87) (EV[Cit]SKLEEWLAAL[Cit]ELAEELLARLKY)
ABCA1 [2]; J774 macrophages with/without cAMP, peptide 10 μg/ml
  ABCA1-dependent cholesterol efflux activity: mediating high-levels of cholesterol efflux

## EVNSKLEEWLAALNELAEELLARLKS [T5766-4]
C57Bl/6 mice; [4]
  muscle toxicity (plasma CPK activity): greatly reduced

## EVRSKLEEWFAAFREFAEEFLARLNS [T5594-4]
C57Bl/6 mice; [4]
  muscle toxicity (plasma CPK activity): greatly reduced muscle toxicity

## EVRSKLEEWFAAFREFAEEFLARL [T5766-5]
C57Bl/6 mice; [4]
  cytotoxic/toxic response (plasma CPK, ALT, AST): reduce the toxic responses
  muscle toxicity (plasma CPK activity): greatly reduced muscle toxicity

## NCC(=O)O [Glycine]
[1]
  Hydrophobicity (scaled computational log(P)): 0.501

## C[C@@H](O)[C@H](N)C(=O)O [Threonine]
[1]
  Hydrophobicity (scaled computational log(P)): 0.450

## CC[C@H](C)[C@H](N)C(=O)O [Isoleucine]
[1]
  Hydrophobicity (scaled computational log(P)): 0.943

## N[C@@H](Cc1c[nH]cn1)C(=O)O [Histidine]
[1]
  Hydrophobicity (scaled computational log(P)): 0.165

## N[C@@H](CCC(=O)O)C(=O)O [Glutamate]
[1]
  Hydrophobicity (scaled computational log(P)): 0.043

## EVQSKLEEWLAALQELAEELLARLKS [T5766-3]
C57Bl/6 mice; [4]
  muscle toxicity (plasma CPK activity): greatly reduced

## T6275-5: citrulline form of LeuATI-5261 with single citrulline14→L substitution (EV[Cit]SKLEEWLAALLELAEELLARLKS)
ABCA1 [3]
  efficiency of stimulating cholesterol efflux (concentration dependence): highly efficient manner
  Km for cholesterol efflux: low Km
  peptide concentration at saturation in cholesterol efflux: 3 µg/mL

## apoA-I: Apolipoprotein A-I, native apolipoprotein used lipid-free as cholesterol efflux acceptor
ABCA1 [2]
  ABCA1-dependent cholesterol efflux: High-levels of cholesterol efflux

## EVKSKLEEWFAAFKEFAEEFLAKLKS [T5594-5]
C57Bl/6 mice; [4]
  cytotoxic/toxic response (plasma CPK, ALT, AST): displayed cytotoxic and TG elevating activity

## NC(=O)C[C@H](N)C(=O)O [Asparagine]
[1]
  Hydrophobicity (scaled computational log(P)): 0.236

## T5505-9: ATI-5261 analog with L24A; W9L substitutions (EVRSKLEELLAALRELAEELLARAKS; synthetic amphipathic alpha-helix cholesterol efflux peptide T5505-9, LeuATI-5261 analog)
C57Bl/6 mice; [4]
  TG elevating effects (plasma TG): markedly reduced
  plasma ALT and/or AST (general, hepatic toxicity): markedly reduced
  muscle toxicity (plasma CPK activity): markedly reduced
ABCA1 [3]
  efficiency of stimulating cholesterol efflux (concentration dependence): high efficiency
  Km for cholesterol efflux: 0.58 µg/mL
  peptide concentration at saturation in cholesterol efflux: ~3 µg/mL

## EARSKAEEWLAALLELAEELLARAKS [T5211-2]
C57Bl/6 mice; [4]
  cytotoxic/toxic response (plasma CPK, ALT, AST): little or no toxic responses

## apoE: Apolipoprotein E, native apolipoprotein used lipid-free as cholesterol efflux acceptor
ABCA1 [2]
  ABCA1-dependent cholesterol efflux: High-levels of cholesterol efflux

## N[C@@H](Cc1ccc(O)cc1)C(=O)O [Tyrosine]
[1]
  Hydrophobicity (scaled computational log(P)): 0.880

## N[C@@H](Cc1c[nH]c2ccccc12)C(=O)O [Tryptophan]
[1]
  Hydrophobicity (scaled computational log(P)): 0.878

## EVRSKLEEWLAALRELAEELLARLKS [T5055-13]
C57Bl/6 mice; C57Bl/6 mice, 300 mg/kg, 4 and 6 h post treatment
  plasma TG, total and unesterified (free) cholesterol (FC): greatly attenuated
C57Bl/6 mice; [4]
  muscle toxicity (plasma CPK activity): residual toxicity

## CSCC[C@H](N)C(=O)O [Methionine]
[1]
  Hydrophobicity (scaled computational log(P)): 0.738

## EVRSKLEEWLAALRELAEELLARAKS [T4883-6]
C57Bl/6 mice; [4]
  TG elevating effects (plasma TG): further reduced
  cytotoxic/toxic response (plasma CPK, ALT, AST): further reduced cytotoxic response
  muscle toxicity (plasma CPK activity): eliminate the residual muscle toxicity

## EVRSKLEEWIAAIREIAEEILARLKS [T6991-1]
C57Bl/6 mice; [4]
  muscle toxicity (plasma CPK activity): little or no cytotoxic properties

## EVRSKLEEWLAALRELAEELAARLKS [T4883-7]
C57Bl/6 mice; [4]
  TG elevating effects (plasma TG): further reduced
  cytotoxic/toxic response (plasma CPK, ALT, AST): further reduced cytotoxic response
  muscle toxicity (plasma CPK activity): eliminate the residual muscle toxicity

## EARSKAEEWLAALRELAEELLARAKS [T5505-12]
C57Bl/6 mice; [4]
  TG elevating effects (plasma TG): greatly ablated
  cytotoxic/toxic response (plasma CPK, ALT, AST): low toxicity

## CC(C)[C@H](N)C(=O)O [Valine]
[1]
  Hydrophobicity (scaled computational log(P)): 0.825

## O=C(O)[C@@H]1CCCN1 [Proline]
[1]
  Hydrophobicity (scaled computational log(P)): 0.711

## N=C(N)NCCC[C@H](N)C(=O)O [Arginine]
[1]
  Hydrophobicity (scaled computational log(P)): 0.000

## NCCCC[C@H](N)C(=O)O [Lysine]
[1]
  Hydrophobicity (scaled computational log(P)): 0.283
